# Tests used:
# Experiment in all cases: KINOMEscan binding
# BIKE = biological target: T1, BIKE (Homo sapiens, UniProt Q9NSY1); settings: read-out: Percent Control
# T1 construct: purchased Eurofins DiscoverX KINOMEscan
# NDR1 = biological target: T2, NDR1 (Homo sapiens, UniProt Q15208); settings: read-out: Percent Control
# T2 construct: purchased Eurofins DiscoverX KINOMEscan
# ROCK1 = biological target: T3, ROCK1 (Homo sapiens, UniProt Q13464)
# T3 construct: purchased Eurofins DiscoverX KINOMEscan
# INSRR = biological target: T4, INSRR (Homo sapiens, UniProt P14616); settings: read-out: Percent Control
# T4 construct: purchased Eurofins DiscoverX KINOMEscan
# MEK5 = biological target: T5, MEK5 (Homo sapiens, UniProt Q13163); settings: read-out: Percent Control
# T5 construct: purchased Eurofins DiscoverX KINOMEscan
# CSK = biological target: T6, CSK (Homo sapiens, UniProt P41240); settings: read-out: Percent Control
# T6 construct: purchased Eurofins DiscoverX KINOMEscan
# ULK3 = biological target: T7, ULK3 (Homo sapiens, UniProt Q6PHR2); settings: read-out: Percent Control
# T7 construct: purchased Eurofins DiscoverX KINOMEscan
# KIT-autoinhibited = biological target: T8, KIT-autoinhibited (Homo sapiens, UniProt P10721); settings: read-out: Percent Control
# T8 construct: purchased Eurofins DiscoverX KINOMEscan
# INSR = biological target: T9, INSR (Homo sapiens, UniProt P06213); settings: read-out: Percent Control
# T9 construct: purchased Eurofins DiscoverX KINOMEscan
# BRK = biological target: T10, BRK (Homo sapiens, UniProt Q13882); settings: read-out: Percent Control
# T10 construct: purchased Eurofins DiscoverX KINOMEscan
# ACVR1B = biological target: T11, ACVR1B (Homo sapiens, UniProt P36896); settings: read-out: Percent Control
# T11 construct: purchased Eurofins DiscoverX KINOMEscan
# HIPK4 = biological target: T12, HIPK4 (Homo sapiens, UniProt Q8NE63); settings: read-out: Percent Control
# T12 construct: purchased Eurofins DiscoverX KINOMEscan
# PCTK3 = biological target: T13, PCTK3 (Homo sapiens, UniProt Q07002); settings: read-out: Percent Control
# T13 construct: purchased Eurofins DiscoverX KINOMEscan
# MINK = biological target: T14, MINK (Homo sapiens, UniProt Q8N4C8); settings: read-out: Percent Control
# T14 construct: purchased Eurofins DiscoverX KINOMEscan
# [1] = biological target: T15, RPS6KA5(Kin.Dom.1-N-terminal) (Homo sapiens, UniProt O75582); settings: read-out: Percent Control
# T15 construct: RPS6KA5(Kin.Dom.1-N-terminal); purchased Eurofins DiscoverX KINOMEscan
# CDKL5 = biological target: T16, CDKL5 (Homo sapiens, UniProt O76039); settings: read-out: Percent Control
# T16 construct: purchased Eurofins DiscoverX KINOMEscan
# FGFR2 = biological target: T17, FGFR2 (Homo sapiens, UniProt P21802); settings: read-out: Percent Control
# T17 construct: purchased Eurofins DiscoverX KINOMEscan
# AURKA = biological target: T18, AURKA (Homo sapiens, UniProt O14965); settings: read-out: Percent Control
# T18 construct: purchased Eurofins DiscoverX KINOMEscan
# ERK2 = biological target: T19, ERK2 (Homo sapiens, UniProt P28482); settings: read-out: Percent Control
# T19 construct: purchased Eurofins DiscoverX KINOMEscan
# MUSK = biological target: T20, MUSK (Homo sapiens, UniProt O15146); settings: read-out: Percent Control
# T20 construct: purchased Eurofins DiscoverX KINOMEscan
# HIPK3 = biological target: T21, HIPK3 (Homo sapiens, UniProt Q9H422); settings: read-out: Percent Control
# T21 construct: purchased Eurofins DiscoverX KINOMEscan
# PLK3 = biological target: T22, PLK3 (Homo sapiens, UniProt Q9H4B4); settings: read-out: Percent Control
# T22 construct: purchased Eurofins DiscoverX KINOMEscan
# PIK3C2G = biological target: T23, PIK3C2G (Homo sapiens, UniProt O75747); settings: read-out: Percent Control
# T23 construct: purchased Eurofins DiscoverX KINOMEscan
# [2] = biological target: T24, ABL1(Q252H)-phosphorylated (Homo sapiens, UniProt P00519, Q252H); settings: read-out: Percent Control
# T24 construct: purchased Eurofins DiscoverX KINOMEscan
# PRKD2 = biological target: T25, PRKD2 (Homo sapiens, UniProt Q9BZL6); settings: read-out: Percent Control
# T25 construct: purchased Eurofins DiscoverX KINOMEscan
# PIM2 = biological target: T26, PIM2 (Homo sapiens, UniProt Q9P1W9); settings: read-out: Percent Control
# T26 construct: purchased Eurofins DiscoverX KINOMEscan
# WNK2 = biological target: T27, WNK2 (Homo sapiens, UniProt Q9Y3S1); settings: read-out: Percent Control
# T27 construct: purchased Eurofins DiscoverX KINOMEscan
# YES = biological target: T28, YES (Homo sapiens, UniProt P07947); settings: read-out: Percent Control
# T28 construct: purchased Eurofins DiscoverX KINOMEscan
# CAMKK1 = biological target: T29, CAMKK1 (Homo sapiens, UniProt Q8N5S9); settings: read-out: Percent Control
# T29 construct: purchased Eurofins DiscoverX KINOMEscan
# MST1R = biological target: T30, MST1R (Homo sapiens, UniProt Q04912); settings: read-out: Percent Control
# T30 construct: purchased Eurofins DiscoverX KINOMEscan
# FRK = biological target: T31, FRK (Homo sapiens, UniProt P42685); settings: read-out: Percent Control
# T31 construct: purchased Eurofins DiscoverX KINOMEscan
# RET(M918T) = biological target: T32, RET(M918T) (Homo sapiens, UniProt P07949, M918T); settings: read-out: Percent Control
# T32 construct: purchased Eurofins DiscoverX KINOMEscan
# CDK9 = biological target: T33, CDK9 (Homo sapiens, UniProt P50750); settings: read-out: Percent Control
# T33 construct: purchased Eurofins DiscoverX KINOMEscan
# BRAF = biological target: T34, BRAF (Homo sapiens, UniProt P15056); settings: read-out: Percent Control
# T34 construct: purchased Eurofins DiscoverX KINOMEscan
# IRAK1 = biological target: T35, IRAK1 (Homo sapiens, UniProt P51617); settings: read-out: Percent Control
# T35 construct: purchased Eurofins DiscoverX KINOMEscan
# PRKD3 = biological target: T36, PRKD3 (Homo sapiens, UniProt O94806); settings: read-out: Percent Control
# T36 construct: purchased Eurofins DiscoverX KINOMEscan
# MYLK4 = biological target: T37, MYLK4 (Homo sapiens, UniProt Q86YV6); settings: read-out: Percent Control
# T37 construct: purchased Eurofins DiscoverX KINOMEscan
# MAP4K4 = biological target: T38, MAP4K4 (Homo sapiens, UniProt O95819); settings: read-out: Percent Control
# T38 construct: purchased Eurofins DiscoverX KINOMEscan
# YANK1 = biological target: T39, YANK1 (Homo sapiens, UniProt Q8WU08); settings: read-out: Percent Control
# T39 construct: purchased Eurofins DiscoverX KINOMEscan
# FYN = biological target: T40, FYN (Homo sapiens, UniProt P06241); settings: read-out: Percent Control
# T40 construct: purchased Eurofins DiscoverX KINOMEscan
# CDK3 = biological target: T41, CDK3 (Homo sapiens, UniProt Q00526); settings: read-out: Percent Control
# T41 construct: purchased Eurofins DiscoverX KINOMEscan
# CASK = biological target: T42, CASK (Homo sapiens, UniProt O14936); settings: read-out: Percent Control
# T42 construct: purchased Eurofins DiscoverX KINOMEscan
# MAP4K2 = biological target: T43, MAP4K2 (Homo sapiens, UniProt Q12851); settings: read-out: Percent Control
# T43 construct: purchased Eurofins DiscoverX KINOMEscan
# BRSK1 = biological target: T44, BRSK1 (Homo sapiens, UniProt Q8TDC3); settings: read-out: Percent Control
# T44 construct: purchased Eurofins DiscoverX KINOMEscan
# T3 sequence (Q13464 whole entry): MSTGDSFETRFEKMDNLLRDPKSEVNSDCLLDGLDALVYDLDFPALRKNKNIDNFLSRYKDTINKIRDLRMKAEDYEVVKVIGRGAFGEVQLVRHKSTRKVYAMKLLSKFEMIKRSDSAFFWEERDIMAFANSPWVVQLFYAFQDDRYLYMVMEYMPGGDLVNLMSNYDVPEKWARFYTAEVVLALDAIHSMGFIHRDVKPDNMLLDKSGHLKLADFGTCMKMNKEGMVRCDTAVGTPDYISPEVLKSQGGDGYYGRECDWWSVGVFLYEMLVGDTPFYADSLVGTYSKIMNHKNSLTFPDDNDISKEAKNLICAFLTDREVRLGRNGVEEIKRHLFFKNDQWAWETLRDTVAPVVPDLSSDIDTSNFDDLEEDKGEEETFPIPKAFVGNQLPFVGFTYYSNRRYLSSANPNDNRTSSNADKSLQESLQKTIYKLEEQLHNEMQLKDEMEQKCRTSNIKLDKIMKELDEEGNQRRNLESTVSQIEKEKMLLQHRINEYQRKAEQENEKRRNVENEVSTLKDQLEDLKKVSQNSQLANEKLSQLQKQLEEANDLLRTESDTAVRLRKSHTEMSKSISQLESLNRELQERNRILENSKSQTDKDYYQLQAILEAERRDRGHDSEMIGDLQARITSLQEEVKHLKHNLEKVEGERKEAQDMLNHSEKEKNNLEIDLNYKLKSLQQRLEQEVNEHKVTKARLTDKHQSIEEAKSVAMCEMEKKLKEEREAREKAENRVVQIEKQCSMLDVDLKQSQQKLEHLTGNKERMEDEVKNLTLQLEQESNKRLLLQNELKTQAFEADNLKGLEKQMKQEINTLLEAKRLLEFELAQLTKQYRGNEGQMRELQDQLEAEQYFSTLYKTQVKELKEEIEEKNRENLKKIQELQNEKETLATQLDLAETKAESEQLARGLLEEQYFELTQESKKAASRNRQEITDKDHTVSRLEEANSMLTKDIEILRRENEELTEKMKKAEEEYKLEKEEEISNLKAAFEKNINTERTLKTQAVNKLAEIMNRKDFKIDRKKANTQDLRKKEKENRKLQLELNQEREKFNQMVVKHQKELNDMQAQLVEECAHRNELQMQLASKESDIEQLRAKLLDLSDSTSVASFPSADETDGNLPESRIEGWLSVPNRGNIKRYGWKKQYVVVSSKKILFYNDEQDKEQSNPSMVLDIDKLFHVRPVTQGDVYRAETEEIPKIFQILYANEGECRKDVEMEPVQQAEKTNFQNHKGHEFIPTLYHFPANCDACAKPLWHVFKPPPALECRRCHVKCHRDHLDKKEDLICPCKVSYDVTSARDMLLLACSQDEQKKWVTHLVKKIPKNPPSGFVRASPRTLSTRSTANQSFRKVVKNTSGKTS
# T37 sequence (Q86YV6 whole entry): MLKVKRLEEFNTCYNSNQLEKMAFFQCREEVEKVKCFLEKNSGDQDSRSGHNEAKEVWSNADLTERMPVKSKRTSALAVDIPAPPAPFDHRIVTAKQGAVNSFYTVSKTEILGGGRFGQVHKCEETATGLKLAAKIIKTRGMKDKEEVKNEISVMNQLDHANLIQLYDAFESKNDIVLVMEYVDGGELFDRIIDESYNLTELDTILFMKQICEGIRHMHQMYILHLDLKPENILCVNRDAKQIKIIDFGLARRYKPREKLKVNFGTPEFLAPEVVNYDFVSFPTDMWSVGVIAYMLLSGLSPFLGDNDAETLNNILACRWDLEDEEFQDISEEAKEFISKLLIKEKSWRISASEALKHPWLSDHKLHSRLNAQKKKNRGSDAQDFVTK
# T30 sequence (Q04912 25-1400): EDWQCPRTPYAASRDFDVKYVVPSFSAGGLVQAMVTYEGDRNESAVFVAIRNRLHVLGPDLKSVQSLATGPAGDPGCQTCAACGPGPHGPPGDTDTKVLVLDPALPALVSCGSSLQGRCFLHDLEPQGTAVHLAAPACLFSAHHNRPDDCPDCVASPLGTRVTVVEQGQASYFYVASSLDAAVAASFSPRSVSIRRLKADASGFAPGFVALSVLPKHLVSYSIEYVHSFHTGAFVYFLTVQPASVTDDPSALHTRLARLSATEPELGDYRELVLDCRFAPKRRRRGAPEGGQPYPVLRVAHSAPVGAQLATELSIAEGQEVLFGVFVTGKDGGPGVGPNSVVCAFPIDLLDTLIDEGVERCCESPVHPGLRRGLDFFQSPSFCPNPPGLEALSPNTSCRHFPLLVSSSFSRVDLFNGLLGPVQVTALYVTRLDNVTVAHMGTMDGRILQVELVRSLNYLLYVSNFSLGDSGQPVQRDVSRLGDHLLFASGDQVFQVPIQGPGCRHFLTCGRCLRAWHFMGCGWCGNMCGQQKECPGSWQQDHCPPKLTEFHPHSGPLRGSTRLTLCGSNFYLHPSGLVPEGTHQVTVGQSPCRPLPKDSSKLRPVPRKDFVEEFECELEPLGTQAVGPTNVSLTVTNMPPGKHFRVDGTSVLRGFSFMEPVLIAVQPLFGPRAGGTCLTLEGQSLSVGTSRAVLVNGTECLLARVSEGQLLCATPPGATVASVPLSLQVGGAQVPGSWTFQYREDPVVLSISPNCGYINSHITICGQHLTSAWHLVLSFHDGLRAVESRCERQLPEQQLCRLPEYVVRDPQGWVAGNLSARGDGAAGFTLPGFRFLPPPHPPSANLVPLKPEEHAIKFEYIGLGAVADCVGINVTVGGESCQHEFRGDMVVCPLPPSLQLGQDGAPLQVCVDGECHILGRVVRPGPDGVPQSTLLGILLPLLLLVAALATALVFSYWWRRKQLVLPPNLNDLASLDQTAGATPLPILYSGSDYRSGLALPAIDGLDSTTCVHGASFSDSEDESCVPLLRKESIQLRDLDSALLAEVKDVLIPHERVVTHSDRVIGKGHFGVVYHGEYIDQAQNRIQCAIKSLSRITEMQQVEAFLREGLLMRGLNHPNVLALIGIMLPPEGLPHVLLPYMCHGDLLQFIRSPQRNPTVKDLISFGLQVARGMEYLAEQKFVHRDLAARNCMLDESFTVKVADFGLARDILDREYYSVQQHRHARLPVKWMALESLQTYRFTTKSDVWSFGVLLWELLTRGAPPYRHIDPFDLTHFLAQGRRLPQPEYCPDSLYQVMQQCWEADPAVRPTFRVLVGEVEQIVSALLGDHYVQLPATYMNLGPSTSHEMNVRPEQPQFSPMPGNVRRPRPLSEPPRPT
# T31 sequence (P42685 whole entry): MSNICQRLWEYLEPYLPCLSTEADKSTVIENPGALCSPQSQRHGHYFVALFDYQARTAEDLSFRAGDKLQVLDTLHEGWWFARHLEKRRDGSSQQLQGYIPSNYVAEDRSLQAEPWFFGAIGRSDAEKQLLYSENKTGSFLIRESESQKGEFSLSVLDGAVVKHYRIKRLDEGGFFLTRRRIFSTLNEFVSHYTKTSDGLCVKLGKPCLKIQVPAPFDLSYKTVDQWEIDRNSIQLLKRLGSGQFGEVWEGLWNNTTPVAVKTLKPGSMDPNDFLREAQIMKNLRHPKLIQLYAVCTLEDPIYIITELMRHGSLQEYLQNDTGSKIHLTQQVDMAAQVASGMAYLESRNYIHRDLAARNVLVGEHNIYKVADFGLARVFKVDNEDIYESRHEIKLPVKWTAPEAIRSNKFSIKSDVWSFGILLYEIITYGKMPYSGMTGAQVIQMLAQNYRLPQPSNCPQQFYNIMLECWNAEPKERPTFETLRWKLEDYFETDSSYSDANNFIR
# T11 sequence (P36896 24-505): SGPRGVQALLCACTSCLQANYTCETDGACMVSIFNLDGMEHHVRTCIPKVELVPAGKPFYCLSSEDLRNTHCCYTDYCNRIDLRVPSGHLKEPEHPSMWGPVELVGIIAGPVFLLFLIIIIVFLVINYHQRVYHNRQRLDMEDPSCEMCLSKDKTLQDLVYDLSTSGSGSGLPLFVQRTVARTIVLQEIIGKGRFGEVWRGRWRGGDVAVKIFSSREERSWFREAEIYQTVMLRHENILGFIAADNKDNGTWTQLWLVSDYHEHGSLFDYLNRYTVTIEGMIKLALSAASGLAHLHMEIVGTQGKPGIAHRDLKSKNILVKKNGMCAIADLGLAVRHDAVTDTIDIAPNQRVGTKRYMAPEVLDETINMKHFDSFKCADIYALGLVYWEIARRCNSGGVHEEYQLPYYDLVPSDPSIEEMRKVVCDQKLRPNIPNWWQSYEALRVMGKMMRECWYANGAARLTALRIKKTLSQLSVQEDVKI
# T12 sequence (Q8NE63 whole entry): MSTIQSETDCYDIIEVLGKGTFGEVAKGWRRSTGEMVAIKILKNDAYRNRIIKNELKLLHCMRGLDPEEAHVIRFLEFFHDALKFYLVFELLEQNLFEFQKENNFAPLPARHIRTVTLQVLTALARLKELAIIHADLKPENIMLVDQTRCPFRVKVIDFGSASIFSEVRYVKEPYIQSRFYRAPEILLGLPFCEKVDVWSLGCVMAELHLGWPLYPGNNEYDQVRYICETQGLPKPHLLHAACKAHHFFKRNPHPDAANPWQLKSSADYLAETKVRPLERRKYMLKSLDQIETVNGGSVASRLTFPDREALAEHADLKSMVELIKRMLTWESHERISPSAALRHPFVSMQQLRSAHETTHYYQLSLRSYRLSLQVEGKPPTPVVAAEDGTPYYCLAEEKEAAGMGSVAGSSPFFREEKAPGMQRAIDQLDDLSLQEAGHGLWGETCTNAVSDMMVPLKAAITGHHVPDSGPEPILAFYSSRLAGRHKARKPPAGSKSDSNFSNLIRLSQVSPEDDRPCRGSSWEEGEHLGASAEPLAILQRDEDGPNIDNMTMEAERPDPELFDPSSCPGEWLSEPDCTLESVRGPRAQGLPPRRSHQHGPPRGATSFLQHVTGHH
# T26 sequence (Q9P1W9 whole entry): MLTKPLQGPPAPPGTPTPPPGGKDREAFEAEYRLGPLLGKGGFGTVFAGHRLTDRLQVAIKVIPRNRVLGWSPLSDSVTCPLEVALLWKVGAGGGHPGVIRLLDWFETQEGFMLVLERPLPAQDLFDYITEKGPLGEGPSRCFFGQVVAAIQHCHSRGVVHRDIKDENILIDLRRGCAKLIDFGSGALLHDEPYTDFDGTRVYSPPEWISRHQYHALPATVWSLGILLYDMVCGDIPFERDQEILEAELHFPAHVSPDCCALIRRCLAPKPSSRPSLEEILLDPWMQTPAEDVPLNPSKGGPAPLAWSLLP
structure (smiles),measurement,setting,value
"CC(C)NC(=O)COc1cccc(-c2nc(Nc3ccc4[nH]ncc4c3)c3ccccc3n2)c1 [KD025, 2-(3-(4-((1H-indazol-5-yl)amino)quinazolin-2-yl)phenoxy)-N-isopropylacetamide]",remaining binding at 10 µM,BIKE,3.9%
same,remaining binding at 10 µM,NDR1,73%
same,ROCK1 vs. ROCK2 in POC,ROCK1; 10 μM,900 fold
same,remaining binding at 10 µM,"ROCK1; ROCK1, read-out: Percent Control",45%
same,remaining binding at 10 µM,INSRR,83%
same,remaining binding at 10 µM,MEK5,63%
same,remaining binding at 10 µM,CSK,88%
same,remaining binding at 10 µM,ULK3,90%
same,remaining binding at 10 µM,KIT-autoinhibited,78%
same,remaining binding at 10 µM,INSR,94%
same,remaining binding at 10 µM,BRK,86%
same,remaining binding at 10 µM,ACVR1B,91%
same,remaining binding at 10 µM,HIPK4,69%
same,remaining binding at 10 µM,PCTK3,81%
same,remaining binding at 10 µM,MINK,71%
same,remaining binding at 10 µM,[1],100%
same,remaining binding at 10 µM,CDKL5,100%
same,remaining binding at 10 µM,FGFR2,84%
same,remaining binding at 10 µM,AURKA,75%
same,remaining binding at 10 µM,ERK2,79%
same,remaining binding at 10 µM,MUSK,59%
same,remaining binding at 10 µM,HIPK3,100%
same,remaining binding at 10 µM,PLK3,72%
same,remaining binding at 10 µM,PIK3C2G,58%
same,remaining binding at 10 µM,[2],100%
same,remaining binding at 10 µM,PRKD2,100%
same,remaining binding at 10 µM,PIM2,85%
same,remaining binding at 10 µM,WNK2,88%
same,remaining binding at 10 µM,YES,71%
same,remaining binding at 10 µM,CAMKK1,94%
same,remaining binding at 10 µM,MST1R,71%
same,remaining binding at 10 µM,FRK,78%
same,remaining binding at 10 µM,RET(M918T),66%
same,remaining binding at 10 µM,CDK9,96%
same,remaining binding at 10 µM,BRAF,85%
same,remaining binding at 10 µM,IRAK1,100%
same,remaining binding at 10 µM,PRKD3,100%
same,remaining binding at 10 µM,MYLK4,17%
same,remaining binding at 10 µM,MAP4K4,87%
same,remaining binding at 10 µM,YANK1,80%
same,remaining binding at 10 µM,FYN,61%
same,remaining binding at 10 µM,CDK3,92%
same,remaining binding at 10 µM,CASK,70%
same,remaining binding at 10 µM,MAP4K2,80%
same,remaining binding at 10 µM,BRSK1,93%

# From publication PMC8401933 (Molecules, 2021)
